# In patent publication US20250032506A1, “GLUCOCORTICOID RECEPTOR BLOCKADE WITH MIFEPRISTONE TO SENSITIZE PANCREATIC CANCER TO IMMUNOTHERAPY” (BOARD OF REGENTS, THE UNIVERSITY OF TEXAS SYSTEM, priority 2021, published 2025):
# Tests used:
# [1] = tested on: orthotopic HY24160 tumors
# Procedure: (§1) Orthotopic pancreatic tumor size was determined by MRI. Subcutaneous tumor size was measured with a caliper. […] Animal body weight was measured throughout the study.
# [2] = tested on: orthotopic HY24409 tumors; assay: Immune checkpoint blockade experiments in male C57BL/6 mice bearing orthotopic HY24409 tumors; assay type: in vivo, mouse; conditions: compared with the vehicle+IgG control
# Procedure: as §1
# SW1990 cells = assay: qPCR, immunoblotting and flow cytometry of PD-L1 and MHC-I pathway expression in SW1990 cells; assay type: cell-based, human
# Procedure: (See Bardeesy, N., et al. supra). The human PDAC cell lines SU86.86 ([…]), SW1990 ([…]), BXPC-3 ([…]), Miapaca-2 ([…]), Capan-1 ([…]), ASPC-1 ([…]), Hs766T ([…]), Colo357/FG ([…]), L3.6PL ([…]), Panc28 ([…]), Capan-2 ([…]), CF-Pac-1 ([…]), Panc3 (sex unknown), Panc1 ([…]), Panc48 (sex unknown), and HPAC ([…]) were from Mien-Chie Hung's lab stock. […] The BXPC-3, Miapaca-2, Capan-1, ASPC-1, Colo357/FG, L3.6PL, Panc28, Capan-2, CF-Pac-1, Panc3, Panc1, Panc48, and HPAC cell lines were cultured in DMEM/F-12 (Corning, 10-092-CV) supplemented with 10% FBS and 1% penicillin/streptomycin. Cells were grown in a humidified incubator with 5% CO2 at 37° C., and low-passage stocks were maintained in a centralized lab cell bank. Short tandem repeat profiling and mycoplasma tests were done by the Cytogenetics and Cell Authentication Core at MD Anderson Cancer Center.
# Membranes were blocked with 10% non-fat milk in TBST and incubated with the primary antibody at 4° C. overnight, followed by incubation with the secondary antibody conjugated with horseradish peroxidase (HRP).
# HY24409 cells = assay: Cell cycle analysis after double thymidine block; assay type: cell-based, mouse; conditions: flow cytometry; mifepristone 20 μM, 48 h pretreatment; unsynchronized and after release from double thymidine block
# Procedure: Cell cycle analysis Cells were seeded in 6-well plates (2×10^5 cells per well) and treated with 2 mM thymidine (Sigma-Aldrich, T9250-1G) for 18 hours, fresh medium for 9 hours, and 2 mM thymidine again for 17 hours to arrest cells in G1/S phases for synchronization. Released cells were collected at the indicated time points by centrifugation, washed in cold PBS, resuspended in 1 ml of 70% ethanol, and stored at −20° C. overnight. Cells were then collected by centrifugation and washed two times with cold PBS. To ensure that only DNA was stained, cells were treated with 50 μl of 100 μg ml^−1 RNase (New England Biolabs, T3018L), and added 425 μl of cell staining buffer (2% FBS in PBS) and 25 μl of propidium iodide solution (BioLegend, 421301). After staining, samples were analyzed by flow cytometry. Cells were gated for PI staining and the cells in G1, S, and G2/M phases were quantitated using FlowJo software.
# HPAC cells = assay: qPCR and immunoblotting of PD-L1 and MHC-I in HPAC cells; assay type: cell-based, human; conditions: MIFE 20 μM (qPCR) or indicated doses (immunoblot), 72 h
# From the text: The male PDAC cell lines HY24409 and HY24160 and the female PDAC cell line HY19636 were established from KPC mice (p48-Cre; Kras^LSL-G12D/+; Trp53^loxP/+) that were backcrossed to a C57BL/6 background (purity: ˜ 98%). (See Bardeesy, N., et al. supra). The human PDAC cell lines SU86.86 ([…]), SW1990 ([…]), BXPC-3 ([…]), Miapaca-2 ([…]), Capan-1 ([…]), ASPC-1 ([…]), Hs766T ([…]), Colo357/FG ([…]), L3.6PL ([…]), Panc28 ([…]), Capan-2 ([…]), CF-Pac-1 ([…]), Panc3 (sex unknown), Panc1 ([…]), Panc48 (sex unknown), and HPAC ([…]) were from Mien-Chie Hung's lab stock. The HY24409, HY24160, HY19636, SU86.86, SW1990, and Hs766T cell lines were cultured in RPMI 1640 (Corning, 10-041-CV) supplemented with 10% fetal bovine serum (FBS) (Gibco, 10438-034) and 1% penicillin/streptomycin (Sigma, P4333). The BXPC-3, Miapaca-2, Capan-1, ASPC-1, Colo357/FG, L3.6PL, Panc28, Capan-2, CF-Pac-1, Panc3, Panc1, Panc48, and HPAC cell lines were cultured in DMEM/F-12 (Corning, 10-092-CV) supplemented with 10% FBS and 1% penicillin/streptomycin. Cells were grown in a humidified incubator with 5% CO2 at 37° C., and low-passage stocks were maintained in a centralized lab cell bank. Short tandem repeat profiling and mycoplasma tests were done by the Cytogenetics and Cell Authentication Core at MD Anderson Cancer Center. […]
# [3] = flow cytometry and qPCR, HY24160 tumors
structure (smiles),measurement,setting,value
CC#C[C@]1(O)CC[C@H]2[C@@H]3CCC4=CC(=O)CCC4=C3[C@@H](c3ccc(N(C)C)cc3)C[C@@]21C [mifepristone],tumor growth,"[1]; C57BL/6 mice, orthotopic HY24160, CTL-dependent manner",inhibited tumor growth
same,MHC-I expression levels,[1]; [3],upregulated
same,expression levels of PD-L1 and known GR-activated genes,[1]; [3],downregulated
same,body weight,"[1]; mouse, in vivo",without affecting body weight
same,infiltration and activity of cytotoxic T cells,"[1]; mouse, in vivo",promoted
same,survival,[2],did not lead to a significant improvement in survival
same,PD-L1 protein,"SW1990 cells; Western blot and flow cytometric analysis, MIFE 72 h",downregulated
same,MHC-I and B2M proteins,"SW1990 cells; Western blot and flow cytometry, MIFE 72 h",upregulation
same,"mRNA levels of components in the MHC-I pathway, including HLA-A, HLA-B, HLA-C, B2M, SEC61B, and SEC61G","SW1990 cells; qPCR, MIFE 20 μM, 72 h",increased
same,"mRNA levels of immune checkpoint ligands, including PD-L1, CD47, TDO, and SIGLEC15","SW1990 cells; qPCR, MIFE 20 μM, 72 h",decreased
same,cell cycle profile,HY24409 cells,neither GR knockdown (FIGS. 11Q-11R) nor mifepristone treatment (FIGS. 11S-11T) altered the cell cycle profile
same,MHC-I at both mRNA and protein levels,HPAC cells,significantly upregulated
same,PD-L1 at both mRNA and protein levels,HPAC cells,downregulated
